Measured values taken from ChEMBL document CHEMBL1201862, “PubChem BioAssay data set” (2004).
Active and inactive are the calls of the source.

Columns and labels:
[1] = target: T1, Tyrosine-protein phosphatase non-receptor type 7 (Homo sapiens, UniProt P35236); assay: redox-active compounds inhibiting HePTP phosphatase – biochemical, fluorescence, mechanism study (AID 2068); assay type: functional
T1 sequence (P35236 whole entry): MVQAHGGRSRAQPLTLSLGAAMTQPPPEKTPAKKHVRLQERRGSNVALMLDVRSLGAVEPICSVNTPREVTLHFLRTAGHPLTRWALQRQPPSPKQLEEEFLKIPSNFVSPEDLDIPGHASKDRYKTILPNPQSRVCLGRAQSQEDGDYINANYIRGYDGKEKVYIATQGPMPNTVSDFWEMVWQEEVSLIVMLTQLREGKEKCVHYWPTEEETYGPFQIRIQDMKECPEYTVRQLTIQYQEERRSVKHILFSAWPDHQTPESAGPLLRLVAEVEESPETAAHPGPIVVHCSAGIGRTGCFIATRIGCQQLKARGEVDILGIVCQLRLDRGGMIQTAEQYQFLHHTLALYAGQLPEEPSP

[2] = target: T2, Dual specificity protein phosphatase 6 (Rattus norvegicus, UniProt Q64346); assay type: functional;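 further: confirmatory in vitro dose-response testing of MKP-3 inhibition; recombinant His-tagged MKP-3 made in E. coli BL21 with OMFP substrate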
T2 sequence (Q64346 whole entry): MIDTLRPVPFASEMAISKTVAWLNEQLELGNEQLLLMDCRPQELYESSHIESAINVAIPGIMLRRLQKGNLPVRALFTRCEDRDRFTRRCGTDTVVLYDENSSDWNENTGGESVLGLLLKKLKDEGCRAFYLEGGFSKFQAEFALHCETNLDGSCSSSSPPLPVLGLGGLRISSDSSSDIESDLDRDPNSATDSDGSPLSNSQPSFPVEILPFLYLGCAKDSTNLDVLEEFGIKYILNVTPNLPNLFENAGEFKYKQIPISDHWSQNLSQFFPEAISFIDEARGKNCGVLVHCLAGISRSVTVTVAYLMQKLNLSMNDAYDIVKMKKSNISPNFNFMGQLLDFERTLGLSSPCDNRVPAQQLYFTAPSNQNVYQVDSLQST

[3] = target: T3, Short transient receptor potential channel 4 (Mus musculus, UniProt Q9QUQ5); assay: potentiation of DAMGO-evoked TRPC4 calcium signal – cell-based, HEK293 TRPC4/mu-opioid, Fluo-4 calcium, EC20 DAMGO, dose response (AID 434941); assay type: functional
T3 sequence (Q9QUQ5 whole entry): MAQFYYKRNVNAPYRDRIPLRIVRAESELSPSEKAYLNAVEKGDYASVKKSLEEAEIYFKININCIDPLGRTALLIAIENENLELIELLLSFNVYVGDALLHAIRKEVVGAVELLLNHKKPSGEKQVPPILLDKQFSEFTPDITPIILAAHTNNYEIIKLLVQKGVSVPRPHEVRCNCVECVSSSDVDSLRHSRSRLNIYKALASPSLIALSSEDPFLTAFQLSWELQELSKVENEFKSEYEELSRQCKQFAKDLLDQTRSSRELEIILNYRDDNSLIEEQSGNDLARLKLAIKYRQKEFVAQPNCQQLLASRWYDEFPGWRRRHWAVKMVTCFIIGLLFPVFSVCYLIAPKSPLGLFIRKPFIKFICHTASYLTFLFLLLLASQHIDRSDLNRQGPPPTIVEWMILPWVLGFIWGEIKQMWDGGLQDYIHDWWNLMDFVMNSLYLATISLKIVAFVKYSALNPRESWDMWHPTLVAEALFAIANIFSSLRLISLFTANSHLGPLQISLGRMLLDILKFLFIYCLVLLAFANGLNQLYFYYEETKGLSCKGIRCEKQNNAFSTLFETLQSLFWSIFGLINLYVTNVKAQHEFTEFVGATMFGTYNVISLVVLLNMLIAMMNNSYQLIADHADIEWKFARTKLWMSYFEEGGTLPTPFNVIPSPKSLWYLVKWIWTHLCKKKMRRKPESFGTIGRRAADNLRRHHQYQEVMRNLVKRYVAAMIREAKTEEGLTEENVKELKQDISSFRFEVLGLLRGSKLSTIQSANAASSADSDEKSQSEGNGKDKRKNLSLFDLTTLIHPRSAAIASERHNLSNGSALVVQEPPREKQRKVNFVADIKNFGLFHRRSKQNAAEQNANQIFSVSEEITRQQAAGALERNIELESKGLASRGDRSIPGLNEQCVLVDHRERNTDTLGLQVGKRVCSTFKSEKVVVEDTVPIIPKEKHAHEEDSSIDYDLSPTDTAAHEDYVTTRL

[4] = target: DNA dC->dU-editing enzyme APOBEC-3A (Homo sapiens, UniProt P31941); assay: Dose Response confirmation of small molecule APOBEC3A DNA Deaminase Inhibitors via a fluorescence-based single-stranded DNA deaminase assay. [Related pubchem assays (depositor defined):AID493011, AID493024]; assay type: functional
Sequence of DNA dC->dU-editing enzyme APOBEC-3A (P31941 whole entry): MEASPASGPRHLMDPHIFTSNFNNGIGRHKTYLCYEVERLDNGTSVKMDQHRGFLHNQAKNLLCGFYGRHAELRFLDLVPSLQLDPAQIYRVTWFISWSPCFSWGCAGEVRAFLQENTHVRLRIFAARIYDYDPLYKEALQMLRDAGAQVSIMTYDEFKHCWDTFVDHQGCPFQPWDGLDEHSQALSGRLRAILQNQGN

[5] = target: Eukaryotic translation initiation factor 4E (Mus musculus, UniProt P63073); assay: blockers of eIF4G binding by eIF4E – biochemical, TR-FRET, dose response (AID 855); assay type: functional;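 further: potency for disrupting eIF4E binding to eIF4GI seen as loss of FRET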
Sequence of Eukaryotic translation initiation factor 4E (P63073 whole entry): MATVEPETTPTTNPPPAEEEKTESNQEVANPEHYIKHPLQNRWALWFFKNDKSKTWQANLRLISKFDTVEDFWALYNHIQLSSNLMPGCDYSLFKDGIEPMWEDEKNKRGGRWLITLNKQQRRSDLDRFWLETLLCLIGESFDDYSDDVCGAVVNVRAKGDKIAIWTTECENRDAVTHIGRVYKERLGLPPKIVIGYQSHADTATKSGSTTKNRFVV

[6] = target: DNA dC->dU-editing enzyme APOBEC-3G (Homo sapiens, UniProt Q9HC16); assay type: functional;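 further: Dose-response counterscreen measuring inhibition of APOBEC3G DNA deaminase activity, run while confirming APOBEC3A inhibitors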
Sequence of DNA dC->dU-editing enzyme APOBEC-3G (Q9HC16 whole entry): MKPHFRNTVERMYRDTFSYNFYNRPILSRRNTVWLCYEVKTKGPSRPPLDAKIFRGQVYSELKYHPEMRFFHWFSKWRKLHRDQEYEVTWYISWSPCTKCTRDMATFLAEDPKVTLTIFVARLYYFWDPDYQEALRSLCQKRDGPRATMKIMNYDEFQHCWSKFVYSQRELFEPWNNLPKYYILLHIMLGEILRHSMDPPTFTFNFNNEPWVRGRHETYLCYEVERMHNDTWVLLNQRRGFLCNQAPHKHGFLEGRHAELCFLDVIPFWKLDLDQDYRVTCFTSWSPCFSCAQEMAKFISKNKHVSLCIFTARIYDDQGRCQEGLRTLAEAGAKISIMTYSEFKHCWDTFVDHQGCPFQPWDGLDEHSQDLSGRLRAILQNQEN

[7] = target: T4, Kappa-type opioid receptor (Homo sapiens, UniProt P41145); assay: kappa opioid receptor activation by imaging – image-based, set 3, SAR follow-up (AID 488833); assay type: functional
T4 sequence (P41145 whole entry): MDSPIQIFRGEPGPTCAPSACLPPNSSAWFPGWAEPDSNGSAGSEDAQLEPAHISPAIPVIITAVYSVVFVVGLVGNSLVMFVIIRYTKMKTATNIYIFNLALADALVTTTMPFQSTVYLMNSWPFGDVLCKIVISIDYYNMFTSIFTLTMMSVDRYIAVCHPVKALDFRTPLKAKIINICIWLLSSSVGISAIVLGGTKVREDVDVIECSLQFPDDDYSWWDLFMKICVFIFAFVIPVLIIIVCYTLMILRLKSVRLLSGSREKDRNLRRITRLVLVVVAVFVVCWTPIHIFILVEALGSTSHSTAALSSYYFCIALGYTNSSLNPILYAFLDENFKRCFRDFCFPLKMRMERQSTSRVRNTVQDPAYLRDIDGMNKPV

Mu-type opioid receptor = Mu-type opioid receptor (Homo sapiens, UniProt P35372); assay: SAR Analysis of Agonists of the MOR Receptor using an Image-Based Assay - Set 3. [Related pubchem assays (depositor defined):AID1777, AID1785, AID1786, AID1966, AID2133, AID2136, AID2284, AID2285, AID2352]; assay type: functional
Sequence of Mu-type opioid receptor (P35372 whole entry): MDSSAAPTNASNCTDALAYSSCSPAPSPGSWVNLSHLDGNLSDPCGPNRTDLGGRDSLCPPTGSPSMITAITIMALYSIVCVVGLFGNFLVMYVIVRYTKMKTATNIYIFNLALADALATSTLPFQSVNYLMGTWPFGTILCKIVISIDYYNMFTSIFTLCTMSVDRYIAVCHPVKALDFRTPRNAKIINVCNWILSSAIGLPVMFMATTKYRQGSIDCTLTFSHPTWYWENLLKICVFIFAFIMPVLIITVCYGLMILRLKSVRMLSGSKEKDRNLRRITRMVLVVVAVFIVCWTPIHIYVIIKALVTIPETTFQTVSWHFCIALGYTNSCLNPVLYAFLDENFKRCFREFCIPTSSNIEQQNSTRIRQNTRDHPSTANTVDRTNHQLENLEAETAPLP

[8] = target: Delta-type opioid receptor (Homo sapiens, UniProt P41143); assay: SAR Analysis of Agonists of the DOR Receptor using an Image-Based Assay - Set 3. [Related pubchem assays (depositor defined):AID1777, AID1786]; assay type: functional
Sequence of Delta-type opioid receptor (P41143 whole entry): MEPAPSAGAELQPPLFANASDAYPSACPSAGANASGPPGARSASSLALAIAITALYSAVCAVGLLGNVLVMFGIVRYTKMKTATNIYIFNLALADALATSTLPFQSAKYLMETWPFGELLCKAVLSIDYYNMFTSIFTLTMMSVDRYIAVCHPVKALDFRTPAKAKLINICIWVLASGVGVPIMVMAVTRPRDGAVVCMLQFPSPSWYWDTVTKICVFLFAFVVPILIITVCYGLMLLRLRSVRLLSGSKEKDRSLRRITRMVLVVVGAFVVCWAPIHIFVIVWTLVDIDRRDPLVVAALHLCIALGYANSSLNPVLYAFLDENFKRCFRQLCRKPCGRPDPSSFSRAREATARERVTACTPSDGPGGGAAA

[9] = target: T4, Kappa-type opioid receptor; assay: SAR analysis of small molecule agonists of the kappa opioid receptor via a luminescent beta-arrestin assay - Set 3. [Related pubchem assays (depositor defined):AID1777, AID1785, AID1786, AID1966, AID2133, AID2136, AID2284, AID2500]; assay type: functional
Trypsin = Trypsin (Sus scrofa, UniProt P00761); assay: trypsin protease activity blockade – biochemical, quenched peptide fluorescence, cherry-pick, selectivity assay for Rce1 protease inhibitor project, dose response (AID 488789)
Sequence of Trypsin (P00761 whole entry): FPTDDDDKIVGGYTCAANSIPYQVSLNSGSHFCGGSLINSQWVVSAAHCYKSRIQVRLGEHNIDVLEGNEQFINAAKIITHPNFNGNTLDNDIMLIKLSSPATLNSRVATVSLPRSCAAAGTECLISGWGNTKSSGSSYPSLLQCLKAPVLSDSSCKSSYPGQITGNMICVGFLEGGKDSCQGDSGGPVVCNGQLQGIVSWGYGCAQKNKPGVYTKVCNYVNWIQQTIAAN

CAAX prenyl protease 2 = CAAX prenyl protease 2 (Saccharomyces cerevisiae S288c, UniProt Q03530); assay type: biochemical
Sequence of CAAX prenyl protease 2 (Q03530 whole entry): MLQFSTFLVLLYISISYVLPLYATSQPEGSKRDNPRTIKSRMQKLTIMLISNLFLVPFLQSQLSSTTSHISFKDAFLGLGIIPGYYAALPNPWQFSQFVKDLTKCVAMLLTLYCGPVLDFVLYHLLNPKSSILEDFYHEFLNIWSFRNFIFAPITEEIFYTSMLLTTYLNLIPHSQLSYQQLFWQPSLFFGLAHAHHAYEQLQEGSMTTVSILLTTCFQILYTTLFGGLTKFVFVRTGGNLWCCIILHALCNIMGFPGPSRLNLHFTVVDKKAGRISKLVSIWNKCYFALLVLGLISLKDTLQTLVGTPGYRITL

[10] = A Cell Based Secondary Assay To Explore Cytotoxicity of Compounds that Sensitize Mycobacterium Tuberculosis to Beta-Lactam Antibiotics.; assay type: functional
[11] = target: G-protein coupled receptor 35 (Homo sapiens, UniProt Q9HC97); assay: inhibition of zaprinast-stimulated GPR35 beta-arrestin translocation – imaging, U2OS, beta-arrestin-GFP, zaprinast agonist, primary screen (AID 2058); assay type: functional;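 further: antagonist potency meaning inhibition of agonist-induced arrestin redistribution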
Sequence of G-protein coupled receptor 35 (Q9HC97 whole entry): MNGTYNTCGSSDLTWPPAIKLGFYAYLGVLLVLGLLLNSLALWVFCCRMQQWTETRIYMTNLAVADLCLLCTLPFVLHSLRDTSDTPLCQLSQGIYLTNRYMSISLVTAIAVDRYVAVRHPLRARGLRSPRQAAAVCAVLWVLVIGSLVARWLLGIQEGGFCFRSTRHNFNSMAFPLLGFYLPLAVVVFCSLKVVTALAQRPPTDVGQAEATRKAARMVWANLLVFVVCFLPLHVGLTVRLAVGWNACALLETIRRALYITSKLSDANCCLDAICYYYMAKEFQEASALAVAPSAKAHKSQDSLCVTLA

[12] = target: G-protein coupled receptor 55 (Homo sapiens, UniProt Q9Y2T6); assay: inhibition of LPI-stimulated GPR55 beta-arrestin translocation – imaging, U2OS, beta-arrestin-GFP, LPI agonist, primary screen (AID 2013); assay type: functional;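 further: antagonist potency measured as reduced agonist-driven arrestin aggregation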
Sequence of G-protein coupled receptor 55 (Q9Y2T6 whole entry): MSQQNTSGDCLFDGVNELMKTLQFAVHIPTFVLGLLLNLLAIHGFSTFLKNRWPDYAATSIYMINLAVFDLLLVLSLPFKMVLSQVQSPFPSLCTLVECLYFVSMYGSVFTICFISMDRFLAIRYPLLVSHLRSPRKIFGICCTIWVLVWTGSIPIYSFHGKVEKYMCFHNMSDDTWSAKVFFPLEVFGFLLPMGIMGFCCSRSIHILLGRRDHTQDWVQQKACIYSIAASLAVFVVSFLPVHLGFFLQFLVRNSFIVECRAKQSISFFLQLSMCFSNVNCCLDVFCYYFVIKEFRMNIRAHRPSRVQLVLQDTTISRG

Large T antigen = Large T antigen (Simian virus 40, UniProt P03070); assay type: functional, Betapolyomavirus macacae;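 further: Confirmatory-stage PubChem screen for compounds that inhibit SV40 T antigen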
Sequence of Large T antigen (P03070 whole entry): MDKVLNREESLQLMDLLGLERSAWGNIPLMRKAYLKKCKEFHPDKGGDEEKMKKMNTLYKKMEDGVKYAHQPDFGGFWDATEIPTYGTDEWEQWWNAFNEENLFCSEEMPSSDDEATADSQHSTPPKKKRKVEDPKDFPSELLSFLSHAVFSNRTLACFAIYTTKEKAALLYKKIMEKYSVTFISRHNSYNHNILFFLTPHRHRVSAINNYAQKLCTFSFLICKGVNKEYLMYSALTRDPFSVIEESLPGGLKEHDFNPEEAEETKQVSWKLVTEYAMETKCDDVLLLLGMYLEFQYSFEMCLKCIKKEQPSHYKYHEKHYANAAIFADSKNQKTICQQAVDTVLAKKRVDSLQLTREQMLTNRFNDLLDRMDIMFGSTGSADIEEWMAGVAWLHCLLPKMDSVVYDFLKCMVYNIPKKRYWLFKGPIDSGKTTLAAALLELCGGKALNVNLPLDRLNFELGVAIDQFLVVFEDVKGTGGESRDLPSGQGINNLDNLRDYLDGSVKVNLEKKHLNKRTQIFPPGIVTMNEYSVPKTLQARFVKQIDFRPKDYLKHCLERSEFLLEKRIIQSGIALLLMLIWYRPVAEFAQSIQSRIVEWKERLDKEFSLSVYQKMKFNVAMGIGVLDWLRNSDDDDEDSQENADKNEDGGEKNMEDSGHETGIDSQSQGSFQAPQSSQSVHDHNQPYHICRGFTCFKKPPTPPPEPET

Nonstructural protein 1 = Nonstructural protein 1 (Influenza A virus, UniProt Q194T2); assay type: functional, Influenza A virus (A/California/07/2009(H1N1))
Sequence of Nonstructural protein 1 (Q194T2 whole entry): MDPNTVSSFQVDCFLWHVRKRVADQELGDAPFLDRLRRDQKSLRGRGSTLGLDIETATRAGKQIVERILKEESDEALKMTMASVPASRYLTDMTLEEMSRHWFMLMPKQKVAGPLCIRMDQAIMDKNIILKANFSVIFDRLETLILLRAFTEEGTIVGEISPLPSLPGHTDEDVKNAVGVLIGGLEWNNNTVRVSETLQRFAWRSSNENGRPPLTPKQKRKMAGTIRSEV

[13] = target: T5, Endoribonuclease toxin MazF (Escherichia coli K-12, UniProt P0AE70); assay: activation of MazEF endoribonuclease cleavage – biochemical, fluorescence, single-stranded RNA substrate, uHTS hits, dose response (AID 588481); assay type: functional
T5 sequence (P0AE70 whole entry): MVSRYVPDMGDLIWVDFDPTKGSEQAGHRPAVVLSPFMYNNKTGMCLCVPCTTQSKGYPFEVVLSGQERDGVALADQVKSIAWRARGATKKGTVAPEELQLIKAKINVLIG

[14] = target: T5, Endoribonuclease toxin MazF; assay: substrate-only fluorescence increase artefacts – biochemical, single-stranded RNase substrate, counter-screen for MazEF activator project, dose response (AID 588502); assay type: functional
cells = assay type: functional
fMet-Leu-Phe receptor = target: T6, fMet-Leu-Phe receptor (Homo sapiens, UniProt P21462); assay: formyl peptide receptor binders – dose response (AID 519); assay type: functional
T6 sequence (P21462 whole entry): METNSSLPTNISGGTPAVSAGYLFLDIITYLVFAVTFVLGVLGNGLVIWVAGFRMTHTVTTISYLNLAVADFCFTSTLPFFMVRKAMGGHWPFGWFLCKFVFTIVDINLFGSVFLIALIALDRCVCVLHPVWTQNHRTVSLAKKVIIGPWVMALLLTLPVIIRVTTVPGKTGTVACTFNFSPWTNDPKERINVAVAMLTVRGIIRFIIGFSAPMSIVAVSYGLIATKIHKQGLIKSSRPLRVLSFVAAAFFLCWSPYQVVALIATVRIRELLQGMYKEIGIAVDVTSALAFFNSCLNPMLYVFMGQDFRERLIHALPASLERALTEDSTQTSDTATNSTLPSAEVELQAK

CCN1CCN(C(=S)c2ccc(O)c(OC)c2)CC1
IC50 [1]: 74.5 µM (active)
IC50 [2]: > 100 µM (inactive)

CCN1CCN(Cc2cc(Br)ccc2O)CC1
EC50 [3]: 0.21 µM (active)

O=C(C[n+]1c2n(c3ccc(C(F)(F)F)cc31)CCCCC2)Nc1ccccc1
IC50 [4]: 2.76 µM (active)
IC50 [5]: > 64 µM (inactive)
IC50 [6]: 3.79 µM (active)

Cc1ccccc1CSc1nnc(-c2ccccn2)n1Cc1ccco1
EC50 [7]: 28.7 µM (inactive)
EC50 (Mu-type opioid receptor): > 32 µM (inactive)
EC50 [8]: > 64 µM (inactive)
EC50 [9]: 17.7 µM (inactive)

COc1ccc2cc(C(=O)C3CCCN(C(=O)CCc4cnn(C)c4)C3)ccc2c1 (stereo not drawn)
AC50 (Trypsin): 11.5 µM (active)
AC50 (CAAX prenyl protease 2): 19.5 µM (active)

Cc1cccc(Cn2c(N3CCN(c4ccccc4)CC3)nc3c2c(=O)n(C)c(=O)n3C)c1
CC50 [10]: > 40 µM (active)
EC50 [3]: 0.84 µM (active)

CN(C)/C=C/C=C/C=C/C1=[N+](C)c2ccccc2C1(C)C
IC50 [11]: 1.82 µM (active)
IC50 [12]: 2.05 µM (active)
IC50 (Large T antigen): 27.8 µM (active)
IC50 (Nonstructural protein 1): 5.75 µM (active)
EC50 [13]: > 99 µM (inactive)
EC50 [14]: 89.5 µM (inactive)

CCCc1cc(O)n2nc(C)c(-c3ccccc3)c2n1
AC50 (Trypsin): 5.36 µM (active)
AC50 (CAAX prenyl protease 2): 22.3 µM (active)
IC50 (cells): 46.5 µM (active)
Ki (fMet-Leu-Phe receptor): > 66.7 µM (inactive)

Cc1c(CSc2nnc(-c3ccccn3)n2Cc2cccs2)cccc1[N+](=O)[O-]
EC50 [7]: 4.15 µM (active)
EC50 (Mu-type opioid receptor): > 32 µM (inactive)
EC50 [8]: > 32 µM (inactive)
EC50 [9]: 5.82 µM (active)
